This is an account of results in patent US10766862B2, “Crystal form and salt form of and preparation method for tyrosine kinase inhibitor” (GUANGDONG RAYNOVENT BIOTECH CO., LTD., priority 2016, dated 2020).

A short description of data set [1]: Test of solubility of crystal form A and its salts in four medias (HPLC, 24 hr). The settings on record: for Solubility (ug/mL)_24 hr: 24 hr stirring; for pH (24 hr): supernatant.
Method: (§1) Preparation of Control Solution (Crystal Form a as Control Sample)
(§2) Crystal form A was accurately weighed and added into a sample vial. 10 mL of acetonitrile was added, and subject to ultrasonic treatment for 5 min. The mixture was cooled to room temperature, and mixed homogeneously. Two aliquots were formulated in parallel, and labelled as STD-1 and STD-2, respectively.
Preparation of Linear Solution
(§3) The control solution STD-1 was gradually diluted 1×, 5×, 10×, 100×, and 1000×, and labelled as the linear solutions L1, L2, L3, L4, L5.
(§4) Test of Solubility of Crystal Form a and its Salts
(§5) The crystal form A and its salts were tested for their solubility in medias at 4 different pH values. About 10 mg of free base (10.8 mg of hydrochloride, 12.1 mg of methane sulfonate) was added into a glass vial. Four aliquots were weighed, 5.0 mL of individual media (water, SGF, FaSSIF, FeSSIF*) was added to each aliquot, respectively. The mixture was mixed homogeneously to for a suspension. A magnet was placed into the suspension, which was placed on a magnetic stirred for stirring. After 24 hours of stirred, a sample was taken and centrifugalized. The supernatant was detected by HPLC for its concentration and pH value.
Data set [2] can be described thus: Test of solid stability of crystal forms F, K and L. Type of data set: physicochemical. On the procedure: Test of Solid Stability of Crystal Form F (Hydrochloride), Crystal Form K (Methane Sulfonate) and Crystal Form L (Methane Sulfonate) […] About 5 mg of each crystal form was accurately weighed and placed in a glass vial. Two aliquots were taken as the sample for test under each condition and at each time point. One aliquot was taken as the sample for XRPD test under each condition and at each time point. The vials containing sample were sealed with aluminum foil, and the foil was pierced to form some holes thereon. Then, the samples were placed in constant temperature & humidity chambers under the conditions of 60° C./92.5% RH and 40° C./75% RH. [table] 2. Analysis of Sample of Solid Stability At the tested time point, the sample was taken out, capped, and stood to room temperature. […] Diluent: an aqueous solution of methanol-0.04% TFA (90:10, v:v) Mobile phase A: 0.04% aqueous solution of TFA Mobile phase B: Acetonitrile as mobile phase B. Crystal form F (hydrochloride): To each sample was added 18 mL of the diluent (to the sample at Day 0 was added 20 mL of the diluent). The mixture was subject to ultrasonic treatment for 2 min, and mixed homogeneously for use as the sample solution. Crystal forms K and L (methane sulfonate): To each sample was added 15 mL of the diluent. The mixture was subject to ultrasonic treatment for 2 min, and mixed homogeneously for use as the sample solution. NOTE: All the sample solutions were injected for analysis immediately after formulation. Once the HPLC system was stable, the sample was injected for analysis.

Data set [3] is described as follows: physchem. The following applies: FeSSIF, pH 4.89, fessif, thermodynamic from solid.
Method: as §1, §2
Preparation of Linear Solution
as §3, §4, §5
Data set [4] has as its system A549 Transplant Model. Nature of the data set: Analysis of tumor growth inhibition (TGI), A549 transplant model. Type of data set: in vivo. The following applies: mice, QD. On the procedure: The development and growth of tumors are evaluated by the relation between the tumor volume and time. The long axis (L) and the short axis (W) are measured with caliper twice per week. The tumor volume (TV) is calculated in accordance with the formula of (L×W^2)/2. TGI is calculated from the difference between the median tumor volume of mice of the solvent group and the median tumor volume of mice of the administration group, and expressed as a percentage relative to the median tumor volume of the solvent group.
It is calculated from the equation of: % TGH(Median Tumor Volume (Control Group) Median Tumor Volume (Administration Group))/Median Tumor Volume (Control Group))×100%
The initial statistical analysis is carried out by repeated variance analyses. Next, multiple comparisons are made by Scheffe psot hoc test method. A solvent (aqueous solution containing 0.5% of methylcellulose and 0.2% Tween) alone is used as negative control.

The mark [5] stands for this setting: 40° C./75% RH, Day 5, sum of impurities > 0.02%.
The mark [6] stands for this setting: 60° C., Day 5, sum of impurities > 0.02%.
Where [7] appears, read: 92.5% RH, Day 5, sum of impurities > 0.02%.
Setting [8] is: -20° C., Day 0 (control per se), Table 17.
Where [9] appears, read: -20° C., Day 0, sum of impurities > 0.02%.
Where [10] appears, read: FaSSIF (pH 6.48), listed as Hydrochloride Crystal form F.
Where [11] appears, read: Water (pH 6.33), listed as Hydrochloride Crystal form F.
Where [12] appears, read: FaSSIF (pH 6.48), listed as Methane sulfonate Crystal form K.
The mark [13] stands for this setting: Water (pH 6.33), listed as Methane sulfonate Crystal form K.

Values after ≈ are worked out from the molar mass of the structure shown.

In the case of `COc1cc2nccc(Oc3ccc(NC(=S)NC4CC4)c(Cl)c3F)c2cc1C(N)=O` [Crystal form A], the “Solubility (ug/mL)_24 hr” value in data set [1] (FaSSIF (pH 6.48)) was 2.62 µg/mL; in data set [1] (SGF (pH 1.72), methane sulfonate loaded to 10 mg/mL of free base), 692.77 µg/mL; in data set [1] (Water (pH 6.33)), 2.38 µg/mL. In addition, the “pH (24 hr)” value was 6.18 in data set [1] (FaSSIF (pH 6.48)), 4.98 in data set [1] (FeSSIF (pH 4.89)), 1.97 in data set [1] (SGF (pH 1.72)) and 7.16 in data set [1] (Water (pH 6.33)).
By solubility is commonly meant how much of the substance goes into solution per volume. Low readings indicate little dissolved substance, high ones much dissolved substance. On to `COc1cc2nccc(Oc3ccc(NC(=S)NC4CC4)c(Cl)c3F)c2cc1C(N)=O` [Crystal form F], for which the “Content (%)” value is recorded as 100.5% in data set [2] (40° C./75% RH, Day 5, Table 17); 99.6% in data set [2] (60° C., Day 5, Table 17); 100.3% in data set [2] (92.5% RH, Day 5, Table 17); 100.0% in data set [2] (setting [8]). In addition, the “Total impurity (%)” value in data set [2] (setting [5]) is reported as 4.94%; in data set [2] (setting [6]), 4.86%; in data set [2] (setting [7]) it was 4.52%; in data set [2] (setting [9]) it was 4.66%. The solubility at 24 h in data set [3] was found to be 70.1 µg/mL (≈ 152 µM). For the same compound, the “Solubility (ug/mL)_24 hr” value in data set [1] (setting [10]) is 64.32 µg/mL; in data set [1] (SGF (pH 1.72), methane sulfonate loaded to 10 mg/mL of free base, listed as Hydrochloride Crystal form F) it was 1217.07 µg/mL; in data set [1] (setting [11]), 319.05 µg/mL. For the same compound, the “pH (24 hr)” value in data set [1] (setting [10]) is given as 3.73; in data set [1] (FeSSIF (pH 4.89), listed as Hydrochloride Crystal form F) it was 4.89; in data set [1] (SGF (pH 1.72), listed as Hydrochloride Crystal form F) it was 1.80; in data set [1] (setting [11]) it was 2.56.
With `COc1cc2nccc(Oc3ccc(NC(=S)NC4CC4)c(Cl)c3F)c2cc1C(N)=O` [Crystal form K], the “Content (%)” value in data set [2] (40° C./75% RH, Day 5, Table 17) was 98.5%; in data set [2] (40° C./75% RH, Day 10, Table 17), 101.7%; in data set [2] (60° C., Day 5, Table 17) it was 94.6%; in data set [2] (60° C., Day 10, Table 17), 93.9%; in data set [2] (92.5% RH, Day 5, Table 17), 99.3%; in data set [2] (92.5% RH, Day 10, Table 17), 99.5%. Moreover, the “Content (%)” value in data set [2] (setting [8]) turned out to be 100.0%. Further, the “Total impurity (%)” value came to 5.32% in data set [2] (setting [5]); 5.62% in data set [2] (40° C./75% RH, Day 10, sum of impurities > 0.02%); 9.33% in data set [2] (setting [6]); 8.94% in data set [2] (60° C., Day 10, sum of impurities > 0.02%); 5.16% in data set [2] (setting [7]); 4.87% in data set [2] (92.5% RH, Day 10, sum of impurities > 0.02%). The “Total impurity (%)” value in data set [2] (setting [9]) is 5.20%. The “Solubility (ug/mL)_24 hr” value is 38.04 µg/mL in data set [1] (setting [12]); 6601.59 µg/mL in data set [1] (SGF (pH 1.72), methane sulfonate loaded to 10 mg/mL of free base, listed as Methane sulfonate Crystal form K); 329.78 µg/mL in data set [1] (setting [13]). Also, the “pH (24 hr)” value in data set [1] (setting [12]) turned out to be 3.92; in data set [1] (FeSSIF (pH 4.89), listed as Methane sulfonate Crystal form K), 4.88; in data set [1] (SGF (pH 1.72), listed as Methane sulfonate Crystal form K) it was 1.76; in data set [1] (setting [13]), 2.53.
With `COc1cc2nccc(Oc3ccc(NC(=S)NC4CC4)c(Cl)c3F)c2cc1C(N)=O` [Crystal form L], the “Content (%)” value in data set [2] (40° C./75% RH, Day 30, Table 18) is 99.4%; in data set [2] (40° C./75% RH, Day 60, Table 18), 99.9%; in data set [2] (40° C./75% RH, Day 90, Table 18), 97.5%; in data set [2] (60° C., Day 5, Table 18), 97.8%; in data set [2] (60° C., Day 10, Table 18), 97.4%; in data set [2] (60° C., Day 30, Table 18) it was 97.1%. For the same compound, the “Content (%)” value in data set [2] (92.5% RH, Day 5, Table 18) was 98.0%; in data set [2] (92.5% RH, Day 10, Table 18), 97.6%; in data set [2] (92.5% RH, Day 30, Table 18) it was 100.2%; in data set [2] (-20° C., Day 0, Table 18), 97.5%. The “Total impurity (%)” value in data set [2] (40° C./75% RH, Day 30, sum of impurities > 0.05%) is reported as 0.9%; in data set [2] (40° C./75% RH, Day 60, sum of impurities > 0.05%), 0.9%; in data set [2] (40° C./75% RH, Day 90, sum of impurities > 0.05%), 1.0%; in data set [2] (60° C., Day 5, sum of impurities > 0.05%) it was 0.8%; in data set [2] (60° C., Day 10, sum of impurities > 0.05%) it was 0.8%; in data set [2] (60° C., Day 30, sum of impurities > 0.05%), 0.8%. For the same compound, the “Total impurity (%)” value turned out to be 0.8% in data set [2] (92.5% RH, Day 5, sum of impurities > 0.05%); 0.8% in data set [2] (92.5% RH, Day 10, sum of impurities > 0.05%); 0.8% in data set [2] (92.5% RH, Day 30, sum of impurities > 0.05%); 0.8% in data set [2] (-20° C., Day 0, sum of impurities > 0.05%). Moreover, the entries for the “TGI % (Last Administration)” value in data set [4] (50 mg/kg), in data set [4] (100 mg/kg) and in data set [4] (200 mg/kg) were 82%, 90% and 91%, respectively.
As to `COc1cc2nccc(Oc3ccc(NC(=S)NC4CC4)c(Cl)c3F)c2cc1C(N)=O` [methane sulfonate], the “Solubility, conclusion in words” value in data set [1] (SGF, listed as methanesulfonate salt) is “good solubility”.
